Reference: US20260159481A1, “INDOLE DERIVATIVE WITH SUBSTITUENT AND PHARMACEUTICAL USE” (MITOIMMUNE THERAPEUTICS INC., priority 2023, published 2026)

Columns and labels:
[1] = Pharmacokinetics in plasma after oral administration to ICR mice; format: in vivo; settings: oral 10 mg/kg, plasma
Protocol: Pharmacokinetic parameters may include the maximum plasma concentration (Cmax), the time to reach the maximum plasma concentration (Tmax), the area under the plasma concentration-time curve (AUCinf), and a half-life (t1/2).
Example Compound 27 was orally administered to ICR mice at a dose of 10 mg/kg. Drug concentrations in the plasma of mice were measured by HPLC-MS/MS spectroscopy 0.5, 1, 2, 4, 8, or 24 hours after administration.
The comparative example compound was orally administered to ICR mice at a dose of 10 mg/kg. The drug concentrations in the plasma of the mice were measured by HPLC-MS/MS 0.5, 1, 2, 4, 8, or 24 hours after administration.

cardiac cells (H9C2) [2] = experiment: Protective effect against t-BHP-induced cell death in cardiac cells (LDH release); format: cell-based; settings: Rattus norvegicus, t-BHP 400 PM, 2 hours, read-out: EC50, protective effect against cell death due to t-BHP induction
Protocol: To confirm a protective effect on cardiac cells, H9C2 cells were seeded at 1.5×10^4 cells/well in a 96-well plate and cultured for 24 hours. The example compounds were diluted to have the final concentration of 0.001, 0.01, 0.03, 0.1, 0.3, 1, 3, 10, and 30 PM, respectively, and then added to different wells, and the resulting cells were cultured for 15 to 20 minutes. Tert-butyl hydroperoxide (t-BHP) was treated to have the final concentration of 400 PM, and the resulting cells were cultured for 2 hours. To confirm the cell death protection effect of each compound, the degree of extracellular secretion of lactate dehydrogenase (LDH) was measured using a cytotoxicity LDH assay kit [Dojindo; CK12]. Briefly, after 2 hours of t-BHP treatment on the cells, 70 μL of the supernatant was taken from the 96-well plate where the cells were cultured and transferred to a new 96-well plate. The assay buffer included in the kit was added at 70 μL/well (equal to that of the sample) and the plate was covered with foil to block light and allowed to react for 15 minutes at room temperature. While observing a color change of each sample, 35 μL/well of a stop solution was added, an absorbance at 490 nm was measured using an iD3 spectrophotometer, and an EC50 value was calculated.

[3] = test system: renal fibroblasts (NRK-49F); experiment: Protective effect against cell death due to RSL3 (LDH release), NRK-49F; format: cell-based; settings: Rattus norvegicus, RSL3 3 μM, 24 hours
Protocol: (§1) To confirm cell death protection effects on cardiac cells, adrenal medullary cells, renal fibroblasts, retinal epithelial cells, lung epithelial cells, renal proximal tubular epithelial cells, hippocampal neurons and fibroblasts, each type of cells were seeded at 4×10^3 to 1.2×10^4 cells/well in a 96-well plate and cultured for 18 to 24 hours. The example compounds were diluted to have the final concentration of 0.001, 0.003, 0.01, 0.3, 1, 3, and 10 μM, respectively, and then added to different wells and cultured for 15 to 20 minutes. […] To confirm the cell death protection effect of the example compounds, the degree of extracellular secretion of lactate dehydrogenase (LDH) was measured using a cytotoxicity LDH assay kit [Dojindo; CK12]. Briefly, at the end of 24-hour treatment of each type of cells with RSL3, 70 μL of the supernatant was taken from the 96-well plate where the cells were cultured and transferred to a new 96-well plate. The assay buffer included in the kit was added at 70 μL/well (equal to that of the sample) and the plate was covered with foil to block light and allowed to react for 15 to 20 minutes at room temperature. While observing a color change of the sample, 35 µL/well of a stop solution was added, an absorbance at 490 nm was measured using an iD3 spectrophotometer, and an EC50 value was calculated.

cardiac cells (H9C2) [4] = experiment: Protective effect against cell death due to RSL3 (LDH release), H9C2; format: cell-based; settings: Rattus norvegicus, RSL3 0.5 μM, 24 hours
Protocol: as §1

[5] = test system: lung epithelial cells (MLE-12); experiment: Protective effect against cell death due to RSL3 (LDH release), MLE-12; format: cell-based; settings: MLE12, RSL3 1 μM, 24 hours
Protocol: as §1

fibroblasts (NIH/3T3) = experiment: Protective effect against cell death due to RSL3 (LDH release), NIH/3T3; format: cell-based; settings: Mus musculus, NIH3T3, RSL3 3 μM, 24 hours
Protocol: as §1

[6] = test system: renal proximal tubular epithelial cells (HK2); experiment: Protective effect against cell death due to RSL3 (LDH release), HK2; format: cell-based; settings: Epithelial cell, RSL3 0.3 μM, 24 hours
Protocol: as §1

[7] = test system: adrenal medullary cells (PC-12); experiment: Protective effect against cell death due to RSL3 (LDH release), PC-12; format: cell-based; settings: Rattus norvegicus, RSL3 0.3 μM, 24 hours
Protocol: as §1

[8] = test system: retinal epithelial cells (ARPE-19); experiment: Protective effect against cell death due to RSL3 (LDH release), ARPE-19; format: cell-based; settings: Homo sapiens, RSL3 0.3 μM, 24 hours
Protocol: as §1

[9] = test system: hippocampal neurons (HT-22); experiment: Protective effect against cell death due to RSL3 (LDH release), HT-22; format: cell-based; settings: Mus musculus, RSL3 0.3 μM, 24 hours
Protocol: as §1

Row | Structure (SMILES) | Cmax ([1]; mouse) | Tmax ([1]; mouse) | half-life ([1]; mouse) | concentration at 0.5 h ([1]; mouse, 0.5 hr) | concentration at 1 h ([1]; mouse, 1 hr) | concentration at 2 h ([1]; mouse, 2 hr) | concentration at 4 h ([1]; mouse, 4 hr) | concentration at 8 h ([1]; mouse, 8 hr) | AUCinf [1] | area under the plasma concentration-time curve (AUCinf) [1] | EC50 (cardiac cells (H9C2) [2]) | EC50 [3] | EC50 (cardiac cells (H9C2) [4]) | EC50 [5] | EC50 (fibroblasts (NIH/3T3)) | EC50 [6] | EC50 [7] | EC50 [8] | EC50 [9]
1 | OCc1cc(NC2CCCC2)c2[nH]c(-c3ccccc3)cc2c1 [Comparative Example, [7-(cyclopentylamino)-2-phenyl-1H-indol-5-yl]methanol, reference compound] | 2110 ng/mL | 1 h | 1.4 h | 1640 ng/mL | 2110 ng/mL | 1120 ng/mL | 389 ng/mL | 51 ng/mL | 5,459 ng · hr/mL | 5460 ng·h/mL | – | – | – | – | – | – | – | – | –
2 | O=C(NC1CC1)c1cc(NCc2ccncc2)c2[nH]c(-c3ccccc3)cc2c1 [Example 8, N-cyclopropyl-2-phenyl-7-((pyridin-4-ylmethyl)amino)-1H-indole-5-carboxamide] | – | – | – | – | – | – | – | – | – | – | ≤ 300 nM | 100 to 1000 nM | 100 to 1000 nM | 100 to 1000 nM | 100 to 1000 nM | 100 to 1000 nM | 100 to 1000 nM | ≤ 100 nM | > 1000 nM
3 | CCN(CC)C(=O)Cc1cc(NCc2ccccc2)c2[nH]c(-c3ccccc3)cc2c1 [Example 14, 2-(7-(benzylamino)-2-phenyl-1H-indol-5-yl)-N,N-diethylacetamide] | – | – | – | – | – | – | – | – | – | – | 300 to 1000 nM | ≤ 100 nM | ≤ 100 nM | ≤ 100 nM | 100 to 1000 nM | ≤ 100 nM | ≤ 100 nM | ≤ 100 nM | 100 to 1000 nM
4 | CCNS(=O)(=O)c1cc(NC2CCCC2)c2[nH]c(-c3ccccc3)cc2c1 [Example 22, 7-(cyclopentylamino)-N-ethyl-2-phenyl-1H-indole-5-sulfonamide] | – | – | – | – | – | – | – | – | – | – | 300 to 1000 nM | ≤ 100 nM | ≤ 100 nM | 100 to 1000 nM | 100 to 1000 nM | ≤ 100 nM | 100 to 1000 nM | ≤ 100 nM | 100 to 1000 nM
5 | CC1(O)CCC(OCc2cc(NC3CCOCC3)c3[nH]c(-c4ccccc4)cc3c2)CC1 (stereo not shown) [Example 36, 1-methyl-4-((2-phenyl-7-((tetrahydro-2H-pyran-4-yl)amino)-1H-indol-5-yl)methoxy)cyclohexan-1-ol] | – | – | – | – | – | – | – | – | – | – | ≤ 300 nM | ≤ 100 nM | ≤ 100 nM | 100 to 1000 nM | 100 to 1000 nM | ≤ 100 nM | 100 to 1000 nM | ≤ 100 nM | 100 to 1000 nM
6 | FC(F)COCc1cc(NC2CCOCC2)c2[nH]c(-c3ccccc3)cc2c1 [Example 40, 5-((2,2-difluoroethoxy)methyl)-2-phenyl-N-(tetrahydro-2H-pyran-4-yl)-1H-indol-7-amine] | – | – | – | – | – | – | – | – | – | – | ≤ 300 nM | ≤ 100 nM | ≤ 100 nM | ≤ 100 nM | 100 to 1000 nM | ≤ 100 nM | ≤ 100 nM | ≤ 100 nM | ≤ 100 nM
7 | c1ccc(-c2cc3cc(COCCN4CCOCC4)cc(NC4CCCC4)c3[nH]2)cc1 [Example 41, N-cyclopentyl-5-((2-morpholinoethoxy)methyl)-2-phenyl-1H-indol-7-amine] | – | – | – | – | – | – | – | – | – | – | ≤ 300 nM | ≤ 100 nM | ≤ 100 nM | ≤ 100 nM | 100 to 1000 nM | ≤ 100 nM | ≤ 100 nM | ≤ 100 nM | ≤ 100 nM
